ChEMBL document CHEMBL1201862, “PubChem BioAssay data set” (2004)
Calls of active or inactive are those of the source.

Assays:
[1] = NIH-3T3 fibroblast cytotoxicity, dose response, cytotoxicity control, cell-based, fluorescence, Alamar Blue, secondary assay (AID 2327); format: functional;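 further: NIH-3T3 mouse fibroblasts cultured with fluconazole at 8 µg/mL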
[2] = C. albicans growth with fluconazole, confirmation, fluorescence, retest (AID 2467); format: functional, cell-based
[3] = molecular target: T1, Ubiquitin-conjugating enzyme E2 N (Homo sapiens, UniProt P61088); format: functional;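 further: Dose-response confirmation in a TR-FRET assay detecting UBC13-driven polyubiquitin chain formation, inhibition measured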
T1 sequence (P61088 whole entry): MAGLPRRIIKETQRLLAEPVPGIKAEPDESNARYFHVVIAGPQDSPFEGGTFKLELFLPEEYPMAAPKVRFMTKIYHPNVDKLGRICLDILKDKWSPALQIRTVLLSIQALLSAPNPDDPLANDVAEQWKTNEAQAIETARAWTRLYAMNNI

[4] = molecular target: T2, Calpain-2 catalytic subunit (Sus scrofa, UniProt P43367); experiment: pig calpain II inhibitor potency, dose response, biochemical, fluorogenic peptide substrate (AID 1420); format: functional
T2 sequence (P43367 whole entry): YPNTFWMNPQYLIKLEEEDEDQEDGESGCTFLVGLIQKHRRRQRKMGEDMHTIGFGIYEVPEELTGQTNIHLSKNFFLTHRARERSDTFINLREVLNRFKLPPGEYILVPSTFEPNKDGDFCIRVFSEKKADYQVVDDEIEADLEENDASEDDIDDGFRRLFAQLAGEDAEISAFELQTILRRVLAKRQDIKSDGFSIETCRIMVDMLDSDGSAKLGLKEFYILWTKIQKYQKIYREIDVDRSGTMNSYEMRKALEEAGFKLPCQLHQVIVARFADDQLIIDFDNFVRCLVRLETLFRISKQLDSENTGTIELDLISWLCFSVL

[5] = molecular target: T3, Leucine aminopeptidase (Plasmodium falciparum 3D7, UniProt Q8IL11); experiment: P. falciparum M17LAP inhibitors, primary screen, biochemical, fluorogenic H-Leu-NHMec substrate, 1536-well (AID 1619); format: functional
T3 sequence (Q8IL11 whole entry): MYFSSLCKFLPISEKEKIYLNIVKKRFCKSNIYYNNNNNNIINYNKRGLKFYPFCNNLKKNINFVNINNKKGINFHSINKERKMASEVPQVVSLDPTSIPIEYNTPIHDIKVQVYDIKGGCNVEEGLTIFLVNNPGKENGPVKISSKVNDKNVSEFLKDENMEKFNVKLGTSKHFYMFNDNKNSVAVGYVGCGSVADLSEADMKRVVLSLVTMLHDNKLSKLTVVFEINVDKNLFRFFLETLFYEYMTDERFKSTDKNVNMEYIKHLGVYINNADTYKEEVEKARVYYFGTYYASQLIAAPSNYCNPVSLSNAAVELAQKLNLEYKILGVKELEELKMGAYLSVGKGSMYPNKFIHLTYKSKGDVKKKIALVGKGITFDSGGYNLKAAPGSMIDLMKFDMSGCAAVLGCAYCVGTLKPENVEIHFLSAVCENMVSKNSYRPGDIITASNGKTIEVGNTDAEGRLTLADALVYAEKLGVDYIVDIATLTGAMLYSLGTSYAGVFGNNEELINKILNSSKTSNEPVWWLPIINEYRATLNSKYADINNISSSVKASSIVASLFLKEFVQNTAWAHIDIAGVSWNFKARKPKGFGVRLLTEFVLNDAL

[6] = cells; format: functional, cell-based
[7] = cells; format: functional, cell-based; remark: listed apart in the source
[8] = molecular target: Cytochrome P450 2C9 (Homo sapiens, UniProt P11712)
[9] = molecular target: Paired box protein Pax-8 (Homo sapiens, UniProt Q06710); experiment: inhibitors of PAX8-driven TPO luciferase reporter, dose response, RMG-I cells, cherry-pick (AID 687027); format: functional, cell-based;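 further: luciferase reporter driven by Pax8 target thyroperoxidase promoter measured by SteadyGlo luminescence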
[10] = molecular target: Cytochrome P450 2C19 (Homo sapiens, UniProt P33261); experiment: Cytochrome panel assay with activity outcomes. Panel member name: p450-cyp2c19 Compounds with AC50 equal or less than 10 uM are considered active; format: functional; conditions: read-out: AC50
[11] = A549 cell cytotoxicity, dose response, cytotoxicity control, plate reader, cherry-pick, antagonist series (AID 743412); format: functional, cell-based
[12] = HepG2 cell cytotoxicity, dose response, cytotoxicity control, plate reader, cherry-pick, antagonist series (AID 743416); format: functional, cell-based
[13] = LGR2 antagonists, dose response, cell-based, HEK293, CRE-luciferase reporter, cherry pick, set 2 (AID 743343); format: functional;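 further: transfected cells were stimulated with diluted bursicon conditioned medium after compound addition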
[14] = MC4R antagonists, dose response, counter-screen for LGR2 antagonist project, cell-based, plate reader, cherry pick (AID 743444); format: functional;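 further: transfected HEK 293 cells stimulated with alpha-MSH peptide; potency of inhibitors of the alpha-MSH evoked signal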
[15] = HEK293 cell cytotoxicity, dose response, cytotoxicity control, plate reader, cherry-picked samples (AID 743446); format: functional, cell-based
[16] = molecular target: T4, Rac GTPase-activating protein 1 (Homo sapiens, UniProt Q9H0H5); experiment: MgcRacGAP GTPase-activating activity inhibitors, confirmation, biochemical, ADP Hunter fluorescence, primary and confirmatory (AID 624330); format: functional
T4 sequence (Q9H0H5 whole entry): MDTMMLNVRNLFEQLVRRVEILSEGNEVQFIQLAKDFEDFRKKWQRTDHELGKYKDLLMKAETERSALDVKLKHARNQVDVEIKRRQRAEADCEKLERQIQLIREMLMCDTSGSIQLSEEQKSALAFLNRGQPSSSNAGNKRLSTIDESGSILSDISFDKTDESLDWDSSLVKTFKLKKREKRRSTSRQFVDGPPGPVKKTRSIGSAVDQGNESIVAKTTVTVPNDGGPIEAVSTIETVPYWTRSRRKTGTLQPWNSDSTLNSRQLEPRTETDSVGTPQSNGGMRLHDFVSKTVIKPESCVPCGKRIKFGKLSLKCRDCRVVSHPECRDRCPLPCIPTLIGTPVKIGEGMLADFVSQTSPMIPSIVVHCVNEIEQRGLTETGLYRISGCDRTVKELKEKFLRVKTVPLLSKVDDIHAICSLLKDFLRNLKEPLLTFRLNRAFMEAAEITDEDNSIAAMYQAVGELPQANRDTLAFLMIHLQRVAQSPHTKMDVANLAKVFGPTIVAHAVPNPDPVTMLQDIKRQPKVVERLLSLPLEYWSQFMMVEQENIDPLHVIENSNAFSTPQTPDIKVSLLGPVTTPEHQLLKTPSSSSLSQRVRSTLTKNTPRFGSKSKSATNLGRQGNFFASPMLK

[17] = molecular target: T5, Cytochrome P450 1A2 (Homo sapiens, UniProt P05177);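 further: PubChem cytochrome P450 panel assay, CYP1A2 panel member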
T5 sequence (P05177 whole entry): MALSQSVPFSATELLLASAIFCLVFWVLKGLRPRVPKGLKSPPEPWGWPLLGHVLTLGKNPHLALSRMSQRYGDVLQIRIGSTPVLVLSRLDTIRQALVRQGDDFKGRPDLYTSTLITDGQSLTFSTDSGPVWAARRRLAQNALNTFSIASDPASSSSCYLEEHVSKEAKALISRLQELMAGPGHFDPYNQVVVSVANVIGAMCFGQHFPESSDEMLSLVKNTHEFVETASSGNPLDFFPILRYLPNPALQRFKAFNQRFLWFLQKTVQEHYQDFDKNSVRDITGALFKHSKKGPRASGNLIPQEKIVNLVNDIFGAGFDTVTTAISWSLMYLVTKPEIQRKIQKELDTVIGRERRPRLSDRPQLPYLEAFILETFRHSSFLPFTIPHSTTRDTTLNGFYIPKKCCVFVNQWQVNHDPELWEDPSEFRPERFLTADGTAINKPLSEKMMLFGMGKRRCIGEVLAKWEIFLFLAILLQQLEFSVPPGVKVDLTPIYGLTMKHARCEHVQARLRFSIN

Chain of Cytochrome P450 2C9 (P11712 whole entry): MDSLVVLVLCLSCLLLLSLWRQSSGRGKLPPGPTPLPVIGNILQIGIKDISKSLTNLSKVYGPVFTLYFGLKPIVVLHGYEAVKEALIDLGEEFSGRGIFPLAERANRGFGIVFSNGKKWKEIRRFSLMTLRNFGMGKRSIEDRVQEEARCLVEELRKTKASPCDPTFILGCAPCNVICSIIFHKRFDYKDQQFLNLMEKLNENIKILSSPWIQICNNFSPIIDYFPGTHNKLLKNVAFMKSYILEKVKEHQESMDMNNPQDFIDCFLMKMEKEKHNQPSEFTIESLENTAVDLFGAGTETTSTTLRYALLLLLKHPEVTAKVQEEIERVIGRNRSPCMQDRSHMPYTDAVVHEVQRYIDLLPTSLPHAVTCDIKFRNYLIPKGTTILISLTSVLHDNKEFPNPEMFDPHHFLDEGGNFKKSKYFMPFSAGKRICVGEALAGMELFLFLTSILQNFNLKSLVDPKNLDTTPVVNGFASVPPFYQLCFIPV
Chain of Paired box protein Pax-8 (Q06710 whole entry): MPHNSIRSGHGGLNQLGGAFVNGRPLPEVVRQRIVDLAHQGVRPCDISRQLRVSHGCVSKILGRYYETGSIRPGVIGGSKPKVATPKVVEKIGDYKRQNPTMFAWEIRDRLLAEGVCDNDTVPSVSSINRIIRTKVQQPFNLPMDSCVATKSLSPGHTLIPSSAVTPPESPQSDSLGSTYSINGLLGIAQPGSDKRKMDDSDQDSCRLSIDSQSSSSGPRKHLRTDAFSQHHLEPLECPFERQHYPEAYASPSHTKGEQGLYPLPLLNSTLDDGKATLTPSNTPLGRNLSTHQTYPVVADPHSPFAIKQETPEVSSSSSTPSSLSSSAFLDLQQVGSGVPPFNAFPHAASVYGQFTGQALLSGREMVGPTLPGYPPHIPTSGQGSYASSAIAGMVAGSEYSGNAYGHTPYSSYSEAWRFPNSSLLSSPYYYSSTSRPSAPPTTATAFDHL
Chain of Cytochrome P450 2C19 (P33261 whole entry): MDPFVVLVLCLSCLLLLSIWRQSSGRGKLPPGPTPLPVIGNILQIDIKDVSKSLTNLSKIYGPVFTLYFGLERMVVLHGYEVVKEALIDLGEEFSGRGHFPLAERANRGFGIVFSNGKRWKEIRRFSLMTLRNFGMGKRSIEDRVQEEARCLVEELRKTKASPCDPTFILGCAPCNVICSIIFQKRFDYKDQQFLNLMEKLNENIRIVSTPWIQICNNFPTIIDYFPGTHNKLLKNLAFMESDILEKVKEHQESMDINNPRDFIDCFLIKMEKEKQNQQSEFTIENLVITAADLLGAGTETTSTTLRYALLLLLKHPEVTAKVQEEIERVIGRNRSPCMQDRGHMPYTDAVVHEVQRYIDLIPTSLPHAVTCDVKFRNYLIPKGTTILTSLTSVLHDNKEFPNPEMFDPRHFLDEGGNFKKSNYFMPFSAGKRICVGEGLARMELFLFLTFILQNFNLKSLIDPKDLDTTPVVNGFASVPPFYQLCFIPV

SMILES: O=C(O)c1cccc(CSc2nc(-c3ccccc3)cc(C(F)(F)F)n2)c1
- EC50 [1]: > 150 µM (inactive)
- EC50 [2]: 5.9 µM (active)

SMILES: O=C1c2cccc3cccc(c23)C(=O)N1CCc1ccccc1
- IC50 [3]: > 20 µM (inactive)

SMILES: CC(=O)Nc1ccc(Nc2ccc(S(=O)(=O)C(F)(F)F)cc2[N+](=O)[O-])cc1
- IC50 [4]: 20 µM (not active)

SMILES: CCN1C(=O)c2cccc3c(NC(=O)c4ccc(S(=O)(=O)N(C)C)cc4)ccc1c23
- IC50 [3]: > 20 µM (inactive)

SMILES: Cc1c(O)c([S+]([O-])c2ccccc2)c(=O)n(-c2ccccc2)c1-c1ccccc1 (stereo not given)
- IC50 [5]: 15.1 µM (active)

SMILES: CCCCN(C(=O)c1c(C)[nH]c(C(=O)OCC)c1C)c1ccccc1
- EC50 [6]: > 350 µM (not active)
- EC50 [7]: > 350 µM (not active)

SMILES: Cc1ccc(C(=O)Nc2ccc3c(c2)nc(CCNC(=O)c2ccco2)n3C)cc1
- EC50 [6]: > 350 µM (not active)
- EC50 [7]: > 350 µM (not active)

SMILES: Cn1cc(CC(=O)N2CCN(c3ccc(Cl)cc3)CC2)c2ccccc21
- EC50 [6]: > 350 µM (not active)
- EC50 [7]: > 350 µM (not active)

SMILES: Cn1c(=O)c2c(ncn2Cc2ccc(Cl)cc2)n(C)c1=O
- IC50 [3]: > 20 µM (inactive)

SMILES: CCCCN1CCC(n2c(=O)[nH]c3ccccc32)CC1
- AC50 [8]: inconclusive

SMILES: Cc1noc(C)c1S(=O)(=O)N(C)C[C@@H]1OCCCC[C@H](C)Oc2ccc(NS(=O)(=O)c3ccc(Cl)cc3)cc2C(=O)N([C@H](C)CO)C[C@@H]1C
- AC50 [9]: 10.4 µM (active)

SMILES: C[C@H](NC(=O)/C(C#N)=C/c1ccc(O)c(O)c1)c1ccccc1
- AC50 [10]: 31.6 µM (inconclusive)
- AC50 [8]: inconclusive

SMILES: COc1ccccc1C#Cc1ccc([C@H]2[C@H](C#N)N(C(=O)C3CCCCC3)[C@H]2CO)cc1
- AC50 [11]: 24.5 µM (active)
- AC50 [12]: 43.7 µM (active)
- AC50 [13]: 5.49 µM (active)
- AC50 [14]: 5.75 µM (active)
- AC50 [15]: 9.53 µM (active)

SMILES: Cc1ccc(S(=O)(=O)Nc2ccc3c(c2)CC(=O)N([C@H](C)CO)C[C@@H](C)[C@H](CN(C)Cc2ccc(C(F)(F)F)cc2)O3)cc1
- AC50 [11]: 8.46 µM (active)
- AC50 [12]: 10.5 µM (active)
- AC50 [13]: 21.6 µM (active)
- AC50 [14]: 14.1 µM (active)
- AC50 [15]: 17.8 µM (active)

SMILES: C/C(=N\NC(=O)CSCc1ccccc1Cl)c1cc(O)ccc1O
- EC50 [1]: > 160 µM (inactive)
- EC50 [2]: > 38 µM (not active)
- IC50 [16]: 24.3 µM (active)

SMILES: CCSc1nnc(-c2ccccc2/N=C/c2c(C)nn(-c3ccccc3)c2O)c(O)n1
- IC50 [5]: 39.6 µM (active)

SMILES: C=CCNC(=S)N/N=C/c1ccc(C)s1
- IC50 [4]: 27.1 µM (not active)

SMILES: CC(C)NC(=S)N/N=C/C1=CCC2CC1C2(C)C (stereo not given)
- IC50 [4]: 49 µM (not active)

SMILES: Cc1ccc(C(=O)O/N=C/c2c(Cl)n(C)c3ccccc23)cc1
- AC50 [17]: 1.12 µM (inconclusive)
- AC50 [8]: inconclusive
